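Grown in 96-well plates, cells were treated for 48 hours with each compound at five concentrations. Insufficient inhibition: endpoint recorded as highest concentration tested. TGI denotes the concentration required for complete inhibition of growth.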
How the values were obtained:
Test in all cases: inhibition of tumour cell growth, NCI panel, 48 h
RPMI-8226 leukemia = test system: RPMI-8226 leukemia
IGROV1 ovarian = test system: IGROV1 ovarian
CCRF-CEM leukemia = test system: CCRF-CEM leukemia
RXF 393 renal = test system: RXF 393 renal
UO-31 renal = test system: UO-31 renal
K-562 leukemia = test system: K-562 leukemia
SF-539 CNS = test system: SF-539 CNS
A549 NSCLC = test system: A549 NSCLC
HCC-2998 colon = test system: HCC-2998 colon
SN12C renal = test system: SN12C renal
UACC-257 melanoma = test system: UACC-257 melanoma
OVCAR-8 ovarian = test system: OVCAR-8 ovarian
SK-MEL-28 melanoma = test system: SK-MEL-28 melanoma
HCT-15 colon = test system: HCT-15 colon
KM12 colon = test system: KM12 colon
786-0 renal = test system: 786-0 renal
SR leukemia = test system: SR leukemia
SF-268 CNS = test system: SF-268 CNS
M19-MEL melanoma = test system: M19-MEL melanoma
OVCAR-5 ovarian = test system: OVCAR-5 ovarian
NCI-H23 lung = test system: NCI-H23 lung
U251 CNS = test system: U251 CNS
NCI-H226 lung = test system: NCI-H226 lung
SNB-19 CNS = test system: SNB-19 CNS
HCT-116 colon = test system: HCT-116 colon
HOP-18 NSCLC = test system: HOP-18 NSCLC
OVCAR-4 ovarian = test system: OVCAR-4 ovarian
KM20L2 colon = test system: KM20L2 colon
SK-OV-3 ovarian = test system: SK-OV-3 ovarian
OVCAR-3 ovarian = test system: OVCAR-3 ovarian
NCI-H522 lung = test system: NCI-H522 lung
MOLT-4 leukemia = test system: MOLT-4 leukemia
SK-MEL-2 melanoma = test system: SK-MEL-2 melanoma
LXFL 529 NSCLC = test system: LXFL 529 NSCLC
COLO 205 colon = test system: COLO 205 colon
NCI-H460 lung = test system: NCI-H460 lung
HT29 colon = test system: HT29 colon
SNB-75 CNS = test system: SNB-75 CNS
CAKI-1 renal = test system: CAKI-1 renal
MALME-3M melanoma = test system: MALME-3M melanoma
TK-10 renal = test system: TK-10 renal
SNB-78 CNS = test system: SNB-78 CNS
M14 melanoma = test system: M14 melanoma
LOX IMVI melanoma = test system: LOX IMVI melanoma
DMS 114 small cell lung = test system: DMS 114 small cell lung
SK-MEL-5 melanoma = test system: SK-MEL-5 melanoma
XF 498 CNS = test system: XF 498 CNS
HL-60(TB) leukemia = test system: HL-60(TB) leukemia
HOP-62 NSCLC = test system: HOP-62 NSCLC
A498 renal = test system: A498 renal
UACC-62 melanoma = test system: UACC-62 melanoma
SW-620 colon = test system: SW-620 colon
SF-295 CNS = test system: SF-295 CNS
ACHN renal = test system: ACHN renal
EKVX NSCLC = test system: EKVX NSCLC
DLD-1 colon = test system: DLD-1 colon
HOP-92 NSCLC = test system: HOP-92 NSCLC
DMS 273 small cell lung = test system: DMS 273 small cell lung

CCc1cccc(CC)c1NC(=O)/C(Cl)=C(/Cl)C(=O)O
TGI (RPMI-8226 leukemia): > 79.4 µM
TGI (IGROV1 ovarian): 50.4 µM
TGI (CCRF-CEM leukemia): 48.8 µM
TGI (RXF 393 renal): 47.2 µM
TGI (UO-31 renal): 47.3 µM
TGI (K-562 leukemia): > 94.9 µM
TGI (SF-539 CNS): 49.2 µM
TGI (A549 NSCLC): > 89.6 µM
TGI (HCC-2998 colon): > 75.9 µM
TGI (SN12C renal): 45.9 µM
TGI (UACC-257 melanoma): 48.3 µM
TGI (OVCAR-8 ovarian): 33.3 µM
TGI (SK-MEL-28 melanoma): 50.9 µM
TGI (HCT-15 colon): 37.3 µM
TGI (KM12 colon): > 100 µM
TGI (786-0 renal): > 56.2 µM
TGI (SR leukemia): > 73.6 µM
TGI (SF-268 CNS): 64.1 µM
TGI (M19-MEL melanoma): 46.5 µM
TGI (OVCAR-5 ovarian): > 100 µM
TGI (NCI-H23 lung): 66.5 µM
TGI (U251 CNS): > 69.8 µM
TGI (NCI-H226 lung): > 100 µM
TGI (SNB-19 CNS): > 100 µM
TGI (HCT-116 colon): 50.3 µM
TGI (HOP-18 NSCLC): 49.5 µM
TGI (OVCAR-4 ovarian): 31.1 µM
TGI (KM20L2 colon): > 71 µM
TGI (SK-OV-3 ovarian): > 100 µM
TGI (OVCAR-3 ovarian): 48.1 µM
TGI (NCI-H522 lung): 29.1 µM
TGI (MOLT-4 leukemia): > 86.9 µM
TGI (SK-MEL-2 melanoma): > 100 µM
TGI (LXFL 529 NSCLC): 20.9 µM
TGI (COLO 205 colon): 30.3 µM
TGI (NCI-H460 lung): > 100 µM
TGI (HT29 colon): 53.7 µM
TGI (SNB-75 CNS): > 81.6 µM
TGI (CAKI-1 renal): 32.6 µM
TGI (MALME-3M melanoma): 36.7 µM
TGI (TK-10 renal): 50.2 µM
TGI (SNB-78 CNS): 65.8 µM
TGI (M14 melanoma): 35.9 µM
TGI (LOX IMVI melanoma): > 100 µM
TGI (DMS 114 small cell lung): 40.9 µM
TGI (SK-MEL-5 melanoma): > 100 µM
TGI (XF 498 CNS): 46.5 µM
TGI (HL-60(TB) leukemia): > 67.3 µM
TGI (HOP-62 NSCLC): > 100 µM
TGI (A498 renal): > 100 µM
TGI (UACC-62 melanoma): > 66.7 µM
TGI (SW-620 colon): 46.8 µM
TGI (SF-295 CNS): > 100 µM
TGI (ACHN renal): 47.6 µM
TGI (EKVX NSCLC): > 68.5 µM
TGI (DLD-1 colon): 49.1 µM
TGI (HOP-92 NSCLC): 41.4 µM
TGI (DMS 273 small cell lung): > 85.8 µM

COc1ccc2c(C(=O)O)cc3ccccc3c2c1OC
TGI (RPMI-8226 leukemia): > 100 µM
TGI (CCRF-CEM leukemia): 88.4 µM
TGI (RXF 393 renal): 28.6 µM
TGI (UO-31 renal): 30.9 µM
TGI (K-562 leukemia): 80.6 µM
TGI (SF-539 CNS): 57.7 µM
TGI (A549 NSCLC): > 100 µM
TGI (HCC-2998 colon): 46.8 µM
TGI (SN12C renal): 53.1 µM
TGI (UACC-257 melanoma): 35.9 µM
TGI (OVCAR-8 ovarian): 56.8 µM
TGI (SK-MEL-28 melanoma): 33.6 µM
TGI (KM12 colon): 33.9 µM
TGI (786-0 renal): 31.1 µM
TGI (SR leukemia): > 100 µM
TGI (SF-268 CNS): 41.4 µM
TGI (M19-MEL melanoma): 61 µM
TGI (OVCAR-5 ovarian): 38.7 µM
TGI (NCI-H23 lung): 48 µM
TGI (U251 CNS): > 100 µM
TGI (NCI-H226 lung): 71.9 µM
TGI (SNB-19 CNS): > 100 µM
TGI (HCT-116 colon): 32.6 µM
TGI (HOP-18 NSCLC): 28.9 µM
TGI (KM20L2 colon): 58.1 µM
TGI (SK-OV-3 ovarian): > 100 µM
TGI (OVCAR-3 ovarian): 32.7 µM
TGI (NCI-H522 lung): 26.8 µM
TGI (MOLT-4 leukemia): > 100 µM
TGI (SK-MEL-2 melanoma): 94.9 µM
TGI (LXFL 529 NSCLC): 30.9 µM
TGI (COLO 205 colon): 44.2 µM
TGI (HT29 colon): 48.9 µM
TGI (SNB-75 CNS): > 100 µM
TGI (MALME-3M melanoma): 41.9 µM
TGI (TK-10 renal): 33.2 µM
TGI (SNB-78 CNS): 33.4 µM
TGI (M14 melanoma): 30.7 µM
TGI (LOX IMVI melanoma): 35 µM
TGI (DMS 114 small cell lung): 38 µM
TGI (XF 498 CNS): 29.2 µM
TGI (HL-60(TB) leukemia): > 100 µM
TGI (HOP-62 NSCLC): > 100 µM
TGI (A498 renal): 40.7 µM
TGI (UACC-62 melanoma): 32.5 µM
TGI (SW-620 colon): 36.4 µM
TGI (SF-295 CNS): > 100 µM
TGI (ACHN renal): 29.8 µM
TGI (EKVX NSCLC): 40.8 µM
TGI (DLD-1 colon): > 100 µM
TGI (HOP-92 NSCLC): 44.3 µM
TGI (DMS 273 small cell lung): 53.4 µM

Source: PubChem BioAssay (NCI)
